# Assay results published in paper PMC10066365, “Nemacol is a small molecule inhibitor of C. elegans vesicular acetylcholine transporter with anthelmintic potential” (Nature Communications, 2023).
# Several values for one entry are separate records, joined by “and”; a condition that tells them apart may be missing. Identical values can stand only once. Like-named read-outs stand apart in the source and are kept apart here.
# How the values were obtained:
# C. elegans = C. elegans motor phenotype scoring on solid media (Punc/jerky-unc, coiled, paralyzed), wild-type young adults; assay type: in vivo, Caenorhabditis elegans; details: for atypical locomotion (number of animals) / coiled (number of animals) / no phene (number of animals) / paralyzed (number of animals) / any phene: mean % fraction of young adults exhibiting any phenotype (coiled, jerky-Unc or paralyzed): one hour; for atypical locomotion (number of animals) / coiled (number of animals) / no phene (number of animals) / paralyzed (number of animals): young adults, 20 animals per trial, single technical replicate; for any phene: mean % fraction of young adults exhibiting any phenotype (coiled, jerky-Unc or paralyzed): mean of three biological replicates
# rat VAChT = biological target: T1, rat VAChT (Rattus norvegicus, UniProt Q62666); experiment: [3H]Vesamicol competitive radioligand binding, PC12 cells expressing ratVAChT
# T1 construct: expressed in transfected cells; host or cells: rat PC12 (PC12 A123.7) cells, stably transfected; shared by Dr. Ali Roghani (Texas Tech University)
# T1 sequence (Q62666 1-530): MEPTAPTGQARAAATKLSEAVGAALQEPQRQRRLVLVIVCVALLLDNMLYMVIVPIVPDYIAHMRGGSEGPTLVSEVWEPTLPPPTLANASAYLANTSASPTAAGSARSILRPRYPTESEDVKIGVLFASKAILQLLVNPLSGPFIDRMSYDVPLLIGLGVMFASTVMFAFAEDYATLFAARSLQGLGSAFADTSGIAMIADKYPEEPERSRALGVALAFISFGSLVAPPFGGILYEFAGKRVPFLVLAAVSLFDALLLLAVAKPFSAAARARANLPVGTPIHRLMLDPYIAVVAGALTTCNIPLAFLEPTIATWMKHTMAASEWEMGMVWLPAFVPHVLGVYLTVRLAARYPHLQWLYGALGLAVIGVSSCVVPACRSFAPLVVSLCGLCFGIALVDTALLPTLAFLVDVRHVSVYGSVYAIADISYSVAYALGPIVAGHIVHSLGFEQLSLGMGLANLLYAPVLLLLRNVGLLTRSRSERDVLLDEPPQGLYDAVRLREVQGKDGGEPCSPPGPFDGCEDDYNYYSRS
# [1] = test system: Dirofilaria immitis microfilariae; experiment: Dirofilaria immitis microfilariae immobility assay (DiroImager, 72 h); details: Dirofilaria immitis microfilariae
# How it was run: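 Motility read after 72 h drug exposure with an image-based high-throughput plate imager, 1% DMSO medium serving as negative control. Missouri-isolate microfilariae, roughly 250 per well, freshly purified and cultured in supplemented RPMI 1640.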
# [2] = test system: Dirofilaria immitis L3/L4; experiment: Dirofilaria immitis L3/L4 motility assay (DiroImager, 72 h); details: Dirofilaria immitis L4
# Pristionchus pacificus = Pristionchus pacificus motor disruption dose-response on solid media, 1 h; details: for mean % any phene: any phenotype (coiled, jerky-Unc or paralyzed) at one hour, mean of three biological replicates
# Haemonchus contortus = Haemonchus contortus L3 Migration Trap Assay (motility, 24 h exposure); details: hc weybridge, motilityTrap24hNoWash, 24 h, single wells
# [3] = conc 3.75, count of 20 animals per trial, one hour
# [4] = conc 15, count of 20 animals per trial, one hour
# [5] = conc 60, count of 20 animals per trial, one hour
smiles,measurement,setting,value
FC(F)(F)c1cccc(N2CCN(CC3CCCC3)CC2)c1 [Nemacol-63],atypical locomotion (number of animals),C. elegans; 3.75uM,0 and 4 and 6 and 2
same,coiled (number of animals),C. elegans; 3.75uM,0
same,no phene (number of animals),C. elegans; 3.75uM,20 and 16 and 14 and 18
same,paralyzed (number of animals),C. elegans; 3.75uM,0
same,"any phene: mean % fraction of young adults exhibiting any phenotype (coiled, jerky-Unc or paralyzed)",C. elegans; 3.75uM,18.3333%
same,atypical locomotion (number of animals),C. elegans; 15uM,14 and 16 and 18 and 15 and 17
same,coiled (number of animals),C. elegans; 15uM,3 and 0 and 2 and 1
same,no phene (number of animals),C. elegans; 15uM,0 and 4 and 3
same,paralyzed (number of animals),C. elegans; 15uM,3 and 4 and 0
same,"any phene: mean % fraction of young adults exhibiting any phenotype (coiled, jerky-Unc or paralyzed)",C. elegans; 15uM,94.1667%
same,atypical locomotion (number of animals),C. elegans; 60uM,8 and 10 and 11 and 9 and 14 and 15
same,coiled (number of animals),C. elegans; 60uM,1 and 3 and 2 and 4
same,no phene (number of animals),C. elegans; 60uM,0 and 5 and 1
same,paralyzed (number of animals),C. elegans; 60uM,11 and 7 and 9 and 0
same,"any phene: mean % fraction of young adults exhibiting any phenotype (coiled, jerky-Unc or paralyzed)",C. elegans; 60uM,95%
same,EC50,"C. elegans; Caenorhabditis elegans, any motor phenotype after 1 h on solid media, ± 95% CI, read-out: C. elegans - motor disruption EC50",6.1 ± 2.1 µM
same,"activity ratio, mammalian VAChT Ki to C. elegans in vivo EC50",rat VAChT,1.10
same,Ki,"rat VAChT; [3H]Vesamicol binding, PC12, experiment 1, read-out: expt 1 Ki (M) vs. rat VAChT (PC12)",4.89e-06 M
same,Ki,"rat VAChT; [3H]Vesamicol binding, PC12, experiment 2, read-out: expt 2 Ki (M) vs. rat VAChT (PC12)",8.47e-06 M
same,Ki,"rat VAChT; [3H]Vesamicol binding, rat VAChT (PC12), mean of 2-3 experiments, read-out: mean Ki",6.68e-06 M
same,Ki,"rat VAChT; [3H]Vesamicol displacement, mean, read-out: ratVAChT Ki",6.68e-06 M
same,"% effect (motility), DIROIM MF",[1]; 0.016 µM,0%
same,"% effect (motility), DIROIM MF",[1]; 0.08 µM,0%
same,"% effect (motility), DIROIM MF",[1]; 0.4 µM,0%
same,"% effect (motility), DIROIM MF",[1]; 2 µM,0%
same,"% effect (motility), DIROIM MF",[1]; 10 µM,0%
same,"% effect (motility), DIROIM L4",[2]; 10 µM,10%
same,"% effect (motility), DIROIM L4",[2]; 50 µM,0%
same,EC50,"Pristionchus pacificus; Pristionchus pacificus, 1 h, read-out: P. pacificus motor disruption EC50",> 60 µM
same,mean % any phene,Pristionchus pacificus; conc 3.75,0.8333%
same,rep 1 atypical locomotion,Pristionchus pacificus; [3],0
same,rep 1 coiled,Pristionchus pacificus; [3],0
same,rep 1 no phene,Pristionchus pacificus; [3],20
same,rep 1 paralyzed,Pristionchus pacificus; [3],0
same,rep 2 atypical locomotion,Pristionchus pacificus; [3],1
same,rep 2 coiled,Pristionchus pacificus; [3],0
same,rep 2 no phene,Pristionchus pacificus; [3],19
same,rep 2 paralyzed,Pristionchus pacificus; [3],0
same,rep 3 atypical locomotion,Pristionchus pacificus; [3],0
same,rep 3 coiled,Pristionchus pacificus; [3],0
same,rep 3 no phene,Pristionchus pacificus; [3],20
same,rep 3 paralyzed,Pristionchus pacificus; [3],0
same,mean % any phene,Pristionchus pacificus; conc 15,1.667%
same,rep 1 atypical locomotion,Pristionchus pacificus; [4],0
same,rep 1 coiled,Pristionchus pacificus; [4],0
same,rep 1 no phene,Pristionchus pacificus; [4],20
same,rep 1 paralyzed,Pristionchus pacificus; [4],0
same,rep 2 atypical locomotion,Pristionchus pacificus; [4],0
same,rep 2 coiled,Pristionchus pacificus; [4],0
same,rep 2 no phene,Pristionchus pacificus; [4],19 and 20
same,rep 3 atypical locomotion,Pristionchus pacificus; [4],0
same,rep 3 coiled,Pristionchus pacificus; [4],0
same,rep 3 no phene,Pristionchus pacificus; [4],20 and 19
same,mean % any phene,Pristionchus pacificus; conc 60,10.8333%
same,rep 1 atypical locomotion,Pristionchus pacificus; [5],4 and 3
same,rep 1 no phene,Pristionchus pacificus; [5],16
same,rep 1 paralyzed,Pristionchus pacificus; [5],0
same,rep 2 atypical locomotion,Pristionchus pacificus; [5],1 and 2
same,rep 2 coiled,Pristionchus pacificus; [5],0
same,rep 2 no phene,Pristionchus pacificus; [5],18
same,rep 3 coiled,Pristionchus pacificus; [5],0
same,rep 3 no phene,Pristionchus pacificus; [5],20 and 19
same,rep 3 paralyzed,Pristionchus pacificus; [5],0
O=[N+]([O-])c1ccc(N2CCN(CC3CCCCC3)CC2)cc1 [Nemacol_1],efficacy,Haemonchus contortus; dose 0.0195312 µM,0
same,efficacy,Haemonchus contortus; dose 0.078125 µM,0
same,efficacy,Haemonchus contortus; dose 0.3125 µM,0
same,efficacy,Haemonchus contortus; dose 1.25 µM,0
same,efficacy,Haemonchus contortus; dose 5 µM,0
